The target in this test is recombinant human MGAT2 (Homo sapiens (Human), UniProt Q3SYC2). In words: Measurement of human MGAT2 inhibitory activity. The class given is biochemical. The following applies: read-out: IC50 (concentration exhibiting 50% enzyme inhibition), Table 52. How it is done:
A full-length human MGAT2 gene to which a Flag-tag had been added at the N-terminal was inserted into pFastBac (from Invitrogen). A recombinant baculovirus was produced in accordance with the protocol for a Bac-to-Bac baculovirus expression system (produced by Invitrogen), and Sf-9 cells were infected therewith. The cells were collected and sonicated, and then the membrane fraction was collected through centrifugation. Western blotting analysis with an anti-Flag antibody was performed for the membrane fraction to confirm expression, and the membrane fraction was used as a recombinant human MGAT2 enzyme solution.
Solutions of the compounds of the present invention in DMSO were each aliquoted into 0.2-μL portions in a 384-well polystyrene microplate produced by Corning Incorporated, and 5 μL of an enzyme solution prepared with an assay buffer (100 mmol/L phosphate buffer (pH 7.4) containing 2 mmol/L DTT) and 5 μL of a substrate solution (100 mmol/L phosphate buffer (pH 7.4), 30 μmol/L 2-Oleoylglycerol, 10 μmol/L Oleoyl-CoA) were added thereto, and the resultant was stirred and centrifuged, and incubated in a moist chamber at room temperature for 1 hour. After enzymatic reaction, 50 μL of a quenching solution (containing 0.2 μmol/L Diolein-d5, 0.4% formic acid, and 50% isopropanol) containing Internal Standard (IS) was added to terminate the reaction, and the resultant was sealed in a plate produced by Shimadzu GLC Ltd., and then stirred and centrifuged, and measurement was performed by using an electrospray ionization method with a RapidFire360 and Agilent 6550 Q-TOF mass spectrometer. Diolein as a reaction product (P) of 2-Oleoylglycerol as the substrate and an ammonium adduct ion of the IS were detected, and the peak intensity ratio, P/IS, was calculated from the peak heights to evaluate the inhibitory activity. Inhibitory activities with/without addition of enzyme were defined as Control (+)/Control (−), respectively, and the respective % inhibitions were defined as 0% inhibition and 100% inhibition. The inhibitory activity was calculated from formula below with TIBCO Spotfire (produced by TIBCO Software Inc.): Inhibitory activity (%)=[1−{Sample−Control(−)}/{Control(+)−Control(−)}]*100 where Sample indicates a peak intensity ratio: P/IS, when the compound of the present invention was added.
Chain of recombinant human MGAT2 (Q3SYC2 whole entry): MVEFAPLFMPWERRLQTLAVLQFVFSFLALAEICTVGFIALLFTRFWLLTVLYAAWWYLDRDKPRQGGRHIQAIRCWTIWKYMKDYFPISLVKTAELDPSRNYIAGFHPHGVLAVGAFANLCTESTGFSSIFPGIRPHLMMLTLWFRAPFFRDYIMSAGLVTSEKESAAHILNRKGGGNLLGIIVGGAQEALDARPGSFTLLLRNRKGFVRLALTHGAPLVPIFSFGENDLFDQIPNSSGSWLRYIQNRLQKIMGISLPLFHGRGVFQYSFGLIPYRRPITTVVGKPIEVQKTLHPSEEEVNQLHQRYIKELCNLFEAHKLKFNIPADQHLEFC
Turning to `CS(=O)(=O)CC(=O)Nc1c2c(nn1CCCc1ccccc1)C[C@]1(CCc3cc(OCCCC(F)(F)F)ccc31)NC2=O` [Compound I-50], the IC50 was 190 nM.
Then `CCCCn1nc2c(c1NC(=O)CS(C)(=O)=O)C(=O)N[C@@]1(CCc3cc(OCCCC(F)(F)F)ccc31)C2` [Compound I-51], with 16 nM; and `CS(=O)(=O)CC(=O)Nc1c2c(nn1CCc1ccccc1)C[C@]1(CCc3cc(OCCCC(F)(F)F)ccc31)NC2=O` [Compound I-52], with 24 nM.
With `CS(=O)(=O)CC(=O)Nc1c2c(nn1CCOCC(F)F)C[C@]1(CCc3cc(OCCCC(F)(F)F)ccc31)NC2=O` [Compound I-53] the figure was 13 nM; with `CCCn1nc2c(c1NC(=O)CS(C)(=O)=O)C(=O)N[C@@]1(CCc3cc(OCCCC(F)(F)F)ccc31)C2` [Compound I-54], 48 nM; with `CS(=O)(=O)CC(=O)Nc1c2c(nn1CC1CCCO1)C[C@]1(CCc3cc(OCCCC(F)(F)F)ccc31)NC2=O` (stereo partly drawn) [Compound I-56], 25 nM.
As to `CS(=O)(=O)CC(=O)Nc1c2c(nn1CCC1CCCCC1)C[C@]1(CCc3cc(OCCCC(F)(F)F)ccc31)NC2=O` [Compound I-57], the IC50 turned out to be 10 nM.
With `COCCCn1nc2c(c1NC(=O)CS(C)(=O)=O)C(=O)N[C@@]1(CCc3cc(OCCCC(F)(F)F)ccc31)C2` [Compound I-58] the figure was 5.5 nM.
Then `CS(=O)(=O)CC(=O)Nc1c2c(nn1CCn1cccn1)C[C@]1(CCc3cc(OCCCC(F)(F)F)ccc31)NC2=O` [Compound I-59], with 14 nM; and `CS(=O)(=O)CC(=O)Nc1c2c(nn1CCOC(F)(F)F)C[C@]1(CCc3cc(OCCCC(F)(F)F)ccc31)NC2=O` [Compound I-60], with 94 nM.
With `CS(=O)(=O)CC(=O)Nc1c2c(nn1CC1CCC(C(F)(F)F)CC1)C[C@]1(CCc3cc(OCCCC(F)(F)F)ccc31)NC2=O` (stereo partly drawn) [Compound I-61] the figure was 340 nM; with `CS(=O)(=O)CC(=O)Nc1nn(CCCc2ccccc2)c2c1C(=O)N[C@@]1(CCc3cc(OCCCC(F)(F)F)ccc31)C2` [Compound I-62], 250 nM.
For the molecule `CCCCn1nc(NC(=O)CS(C)(=O)=O)c2c1C[C@]1(CCc3cc(OCCCC(F)(F)F)ccc31)NC2=O` [Compound I-63], the IC50 was 400 nM.
With `CS(=O)(=O)CC(=O)Nc1nn(CCOCC(F)F)c2c1C(=O)N[C@@]1(CCc3cc(OCCCC(F)(F)F)ccc31)C2` [Compound I-64] the figure was 410 nM; with `CS(=O)(=O)CC(=O)Nc1nn(CCC2CCCCC2)c2c1C(=O)N[C@@]1(CCc3cc(OCCCC(F)(F)F)ccc31)C2` [Compound I-65], 660 nM; with `CS(=O)(=O)CC(=O)Nc1nn(CCn2cccn2)c2c1C(=O)N[C@@]1(CCc3cc(OCCCC(F)(F)F)ccc31)C2` [Compound I-66], 970 nM.
With `O=C1N[C@@]2(CCc3cc(OCC(F)(F)F)ccc32)Cc2nn(CCC3CC3)c(C(=O)NC3CS(=O)(=O)C3)c21` [Compound I-68] the figure was 760 nM; with `CC(C)(O)CCn1nc2c(c1NC(=O)CS(C)(=O)=O)C(=O)N[C@@]1(CCc3cc(OCCCC(F)(F)F)ccc31)C2` [Compound I-69], 55 nM.
Regarding `CS(=O)(=O)CC(=O)Nc1c2c(nn1CCC1CC1)C[C@](c1ccc(OCC(F)(F)F)cc1)(C(F)(F)F)NC2=O` [Compound I-70], the IC50 was found to be 54 nM.
Then `CS(=O)(=O)CC(=O)Nc1c2c(nn1CCC1CC1)C[C@@]1(CCc3cc(OCC(F)(F)F)ccc31)NC2=O` [Compound I-71], with 3.9 nM.
Then `O=C1N[C@@]2(CCc3cc(OCCCC(F)(F)F)ccc32)Cc2nn(CCC3CC3)c(C(=O)NS(=O)(=O)C3CC3)c21` [Compound I-72], with 8.3 nM.
Consider `CS(=O)(=O)CC(=O)Nc1nn(CC2CCC(C(F)(F)F)CC2)c2c1C(=O)N[C@@]1(CCc3cc(OCCCC(F)(F)F)ccc31)C2` (stereo partly drawn) [Compound I-73], for which the IC50 was 290 nM.
Then `Cc1cccc(Cn2nc(NC(=O)CS(C)(=O)=O)c3c2C[C@]2(CCc4cc(OCCCC(F)(F)F)ccc42)NC3=O)c1` [Compound I-74], with 520 nM.
Then `Cc1ccccc1Cn1nc(NC(=O)CS(C)(=O)=O)c2c1C[C@]1(CCc3cc(OCCCC(F)(F)F)ccc31)NC2=O` [Compound I-75], with 580 nM; and `CS(=O)(=O)CC(=O)Nc1c2c(nn1C1CCCC1)C[C@]1(CCc3cc(OCC(F)(F)F)ccc31)NC2=O` [Compound I-76], with 95.5 nM.
With `CS(=O)(=O)CC(=O)Nc1c2c(nn1-c1ccc(Cl)cn1)C[C@]1(CCc3cc(OCC(F)(F)F)ccc31)NC2=O` [Compound I-77] the figure was 1 nM; with `O=C(Nc1c2c(nn1CCC1CC1)C[C@]1(CCc3cc(OCC(F)(F)F)ccc31)NC2=O)c1cccnc1` [Compound I-78], 37.5 nM.
As for `O=C(Nc1c2c(nn1CCC1CC1)C[C@]1(CCc3cc(OCC(F)(F)F)ccc31)NC2=O)c1ccccn1` [Compound I-79], the IC50 came to 860 nM.
Then `O=C(Nc1c2c(nn1CCC1CC1)C[C@]1(CCc3cc(OCC(F)(F)F)ccc31)NC2=O)c1ccncc1` [Compound I-80], with 16 nM; and `O=C(Nc1c2c(nn1CCC1CC1)C[C@]1(CCc3cc(OCC(F)(F)F)ccc31)NC2=O)c1cccnn1` [Compound I-81], with 240 nM; and `O=C1N[C@@]2(CCc3cc(OCC(F)(F)F)ccc32)Cc2nn(CCC3CC3)c(CNC(=O)C3CCCC3)c21` [Compound I-82], with 230 nM.
Then `CC1(C(=O)NCc2c3c(nn2CCC2CC2)C[C@]2(CCc4cc(OCC(F)(F)F)ccc42)NC3=O)COC1` [Compound I-83], with 110 nM.
With `N#CCNC(=O)c1c2c(nn1CCC1CC1)C[C@]1(CCc3cc(OCC(F)(F)F)ccc31)NC2=O` [Compound I-84] the figure was 430 nM; with `O=C1N[C@@]2(CCc3cc(OCC(F)(F)F)ccc32)Cc2nn(CCC3CC3)c(C(=O)NCCO)c21` [Compound I-85], 570 nM.
On to `O=C1N[C@@]2(CCc3cc(OCC(F)(F)F)ccc32)Cc2nn(CCC3CC3)c(C(=O)NC3CCOC3)c21` (stereo partly drawn) [Compound I-86], for which the IC50 was determined as 960 nM.
With `CS(=O)(=O)CCNC(=O)c1c2c(nn1CCC1CC1)C[C@]1(CCc3cc(OCC(F)(F)F)ccc31)NC2=O` [Compound I-87] the figure was 440 nM; with `CC1(NC(=O)c2c3c(nn2CCC2CC2)C[C@]2(CCc4cc(OCC(F)(F)F)ccc42)NC3=O)COC1` [Compound I-88], 270 nM.
With `O=C1N[C@@]2(CCc3cc(OCC(F)(F)F)ccc32)Cc2nn(CCC3CC3)c(C(=O)NCC3(CO)COC3)c21` [Compound I-89] the figure was 55 nM; with `O=C1N[C@@]2(CCc3cc(OCC(F)(F)F)ccc32)Cc2nn(CCC3CC3)c(C(=O)NCC3(O)CCC3)c21` [Compound I-90], 33 nM; with `CS(=O)(=O)CC(=O)Nc1c2c(nn1-c1ccc(Br)cn1)C[C@]1(CCc3cc(OCC(F)(F)F)ccc31)NC2=O` [Compound I-91], 1.2 nM.
In the case of `Cc1cc(C(=O)Nc2c3c(nn2CCC2CC2)C[C@]2(CCc4cc(OCC(F)(F)F)ccc42)NC3=O)on1` [Compound I-92], the IC50 amounted to 73 nM.
For the molecule `CS(=O)(=O)CC(=O)Nc1c2c(nn1CCC1CC1)C[C@]1(CCc3cc(C#N)ccc31)NC2=O` [Compound I-93], the IC50 came to 160 nM.
Then `CS(=O)(=O)CC(=O)Nc1c2c(nn1CCC1CC1)C[C@]1(CCc3cc(OCC(F)(F)F)cc(F)c31)NC2=O` [Compound I-94], with 3.7 nM; and `CS(=O)(=O)CC(=O)Nc1c2c(nn1-c1ccc(C(F)(F)F)cc1)C[C@]1(CCc3cc(OCC(F)(F)F)ccc31)NC2=O` [Compound I-95], with 5.1 nM; and `CS(=O)(=O)CC(=O)Nc1c2c(nn1C1CCCCC1)C[C@]1(CCc3cc(OCC(F)(F)F)ccc31)NC2=O` [Compound I-96], with 54 nM.
Regarding `Cc1ccc(-n2nc3c(c2NC(=O)CS(C)(=O)=O)C(=O)N[C@@]2(CCc4cc(OCC(F)(F)F)ccc42)C3)cc1` [Compound I-97], the IC50 was 6.9 nM.
With `Cc1cccc(-n2nc3c(c2NC(=O)CS(C)(=O)=O)C(=O)N[C@@]2(CCc4cc(OCC(F)(F)F)ccc42)C3)c1` [Compound I-98] the figure was 8.5 nM.
As to `CS(=O)(=O)CC(=O)Nc1c2c(nn1-c1ccc(F)cc1)C[C@]1(CCc3cc(OCC(F)(F)F)ccc31)NC2=O` [Compound I-99], the IC50 worked out at 6.2 nM.
Then `COc1ccc(-n2nc3c(c2NC(=O)CS(C)(=O)=O)C(=O)N[C@@]2(CCc4cc(OCC(F)(F)F)ccc42)C3)cc1` [Compound I-100], with 32 nM; and `CS(=O)(=O)CC(=O)Nc1c2c(nn1-c1ccccn1)C[C@]1(CCc3cc(OCC(F)(F)F)ccc31)NC2=O` [Compound I-101], with 17 nM.
Consider `CS(=O)(=O)CC(=O)Nc1c2c(nn1CCC1CC1)C[C@]1(CCc3cc(NCC(F)(F)F)ccc31)NC2=O` [Compound I-102], for which the IC50 is 25 nM.
